# Laboratory results as given in ChEMBL document CHEMBL5338723, “Emerging Target-Directed Approaches for the Treatment and Diagnosis of Microbial Infections” (J Med Chem, 2023).
# *1 amine or outer side, *2 acyl side, *3 side chain or, on linkers, in order; H or OH if unused. Where a SMILES comes first, the peptide text is derived from it. Side-chain parts run from the residue outwards. [ ]: non-standard residue; d: D form. The star is where a group is joined. X1 = Cn1c(=N)ccn([C@@H]2S[C@H]([C@@H](O)[C@@H](N[*:1])C(=O)[*:2])[C@H](O)[C@H]2O)c1=O; DAMPA = CN(Cc1cnc2nc(N)nc(N)c2n1)c1ccc(C(=O)*)cc1; Orn(N5-OH,N5-Ac) = CC(=O)N(O)CCC[C@H](N)C(=O)O; γGlu = O=C(O)[C@H](CCC(=O)[*:2])N[*:1]; Ethylenediamine = C(CN[*:2])N[*:1]
# Key:
# Escherichia coli [1] = assay: Antimicrobial activity against Escherichia coli B assessed as microbial growth inhibition; type: functional
# Escherichia coli [2] = assay: Antimicrobial activity against Escherichia coli F assessed as microbial growth inhibition; type: functional
# Escherichia coli [3] = assay: Antimicrobial activity against Escherichia coli ML35p assessed as microbial growth inhibition; type: functional
# Escherichia coli [4] = assay: Antimicrobial activity against Escherichia coli MC4100 assessed as microbial growth inhibition; type: functional
# Escherichia coli [5] = assay: Antimicrobial activity against aroB negative Escherichia coli H1443 assessed as microbial growth inhibition; type: functional
# Escherichia coli [6] = assay: Antimicrobial activity against aroB/fepA negative Escherichia coli H873 assessed as microbial growth inhibition; type: functional
# Escherichia coli [7] = assay: Antimicrobial activity against aroB/fiu negative Escherichia coli H1594 assessed as microbial growth inhibition; type: functional
# Escherichia coli [8] = assay: Antimicrobial activity against aroB/cir negative Escherichia coli H2222 assessed as microbial growth inhibition; type: functional
# Escherichia coli [9] = assay: Antimicrobial activity against aroB/cir/fiu negative Escherichia coli H1728 assessed as microbial growth inhibition; type: functional
# Escherichia coli [10] = assay: Antimicrobial activity against aroB/fepA/cir negative Escherichia coli H1875 assessed as microbial growth inhibition; type: functional
# Escherichia coli [11] = assay: Antimicrobial activity against aroB/fepA/fiu negative Escherichia coli H1877 assessed as microbial growth inhibition; type: functional
# Escherichia coli [12] = assay: Antimicrobial activity against fhuA negative Escherichia coli C600 assessed as microbial growth inhibition; type: functional
# Escherichia coli [13] = assay: Antimicrobial activity against Escherichia coli C600 harboring pHX405 plasmid assessed as microbial growth inhibition; type: functional
# Escherichia coli [14] = assay: Antimicrobial activity against Escherichia coli W3110 assessed as microbial growth inhibition; type: functional
# Escherichia coli [15] = assay: Antimicrobial activity against pTon positive Escherichia coli W3110-KP1344 harboring pMS7 assessed as microbial growth inhibition; type: functional
# Escherichia coli [16] = assay: Antimicrobial activity against exbB/exbD negative Escherichia coli W3110-6 assessed as microbial growth inhibition; type: functional
# Salmonella enteritidis = assay: Antimicrobial activity against Salmonella enterica subsp. enterica serovar Enteritidis assessed as increase in microbial growth inhibition; type: functional
# Klebsiella pneumoniae = assay: Antibacterial activity against Klebsiella pneumoniae assessed as microbial growth inhibition; type: functional
# Enterobacter cloacae = assay: Antibacterial activity against Enterobacter cloacae; type: functional
# Streptococcus pneumoniae = assay: Antimicrobial activity against Streptococcus pneumoniae assessed as microbial growth inhibition; type: functional
# Yersinia enterocolitica = assay: Antimicrobial activity against Yersinia enterocolitica assessed as microbial growth inhibition; type: functional
# [17] = Cytotoxicity against human L02 assessed as lethal dose; type: toxicity, cell-based; settings: L02 cells, read-out: LD50 (the source's name)
# [18] = Potency index, ratio of test compound LD50 to methotrexate LD50 for cytotoxicity against human L02 cells; type: toxicity, cell-based
compound,measurement,setting,value
"CC(=O)N(O)CCC[C@H](NC(=O)[C@H](CCCN(O)C(C)=O)NC(=O)[C@@H](N)CCCN(O)C(C)=O)C(=O)N[C@@H](CO)C(=O)N[C@@H](C(=O)O)[C@H](O)[C@H]1S[C@@H](n2ccc(=N)n(C)c2=O)[C@H](O)[C@H]1O (H-[Orn(N5-OH,N5-Ac)][Orn(N5-OH,N5-Ac)][Orn(N5-OH,N5-Ac)]S[X1]-OH)",MIC,Escherichia coli [1],0.04 µM
same,MIC,Escherichia coli [2],0.04 µM
same,MIC,Escherichia coli [3],0.04 µM
same,MIC,Escherichia coli [4],0.04 µM
same,MIC,Escherichia coli [5],0.04 µM
same,MIC,Escherichia coli [6],0.04 µM
same,MIC,Escherichia coli [7],0.04 µM
same,MIC,Escherichia coli [8],0.04 µM
same,MIC,Escherichia coli [9],0.04 µM
same,MIC,Escherichia coli [10],0.04 µM
same,MIC,Escherichia coli [11],0.04 µM
same,MIC,Escherichia coli [12],0.04 µM
same,MIC,Escherichia coli [13],0.04 µM
same,MIC,Escherichia coli [14],0.04 µM
same,MIC,Escherichia coli [15],0.04 µM
same,MIC,Escherichia coli [16],0.04 µM
same,MIC,Salmonella enteritidis,0.04 µM
same,MIC,Klebsiella pneumoniae,0.04 µM
same,MIC,Enterobacter cloacae,0.04 µM
"CC(=O)N(O)CCC[C@H](NC(=O)[C@H](CCCN(O)C(C)=O)NC(=O)[C@@H](N)CCCN(O)C(C)=O)C(=O)N[C@@H](CCC(=O)NCCNC(=O)CC[C@H](NC(=O)c1ccc(N(C)Cc2cnc3nc(N)nc(N)c3n2)cc1)C(=O)O)C(=O)O (H-[Orn(N5-OH,N5-Ac)][Orn(N5-OH,N5-Ac)][Orn(N5-OH,N5-Ac)]E([Ethylenediamine-γGlu-DAMPA])-OH)",MIC,Streptococcus pneumoniae,0.00172 µM
same,MIC,Yersinia enterocolitica,0.00684 µM
same,CC50,[17],18.5 µM
same,selectivity ratio,[18],2310
